The source of these data is patent US20060063842A1, “Hypogastric and/or perineal pain-relieving agent” (priority 2002, published 2006).

This test deals with patients with lower urinary tract symptoms. The test can be described thus: Clinical test (12 week study) to patients suffering from lower urinary tract symptoms: pain scores. It counts as in vivo. The procedure: Clinical Test (12 Week Study) to Patients Suffering from Lower Urinary Tract Symptoms A clinical study was conducted in patients with lower urinary tract symptoms under the conditions shown below. Subjects: Eighteen patients diagnosed to have urinary dysfunction without accompanying obvious organic or neurological abnormality in lower urinary tract. Study drug and the method of administration: Until Week 4, capsules each containing 0.2 mg tamsulosin hydrochloride were orally administered, one capsule/time/day, after breakfast. In Week 4, the doses for later than Week 4 were determined by referring to the Table below, and the doses determined were orally administered once daily after breakfast. <Criterion of Dose after 4 Weeks> [table] Study period: 12 weeks Observed items: Evaluations and measurements were made for the following items before and after the administration. (2) Pains The pain scores shown below were evaluated before administration, and 4 and 12 weeks after administration. <1> Hypogastric/perineal pain “How strong is hypogastric/perineal pain?” • 0: No pain • 1: Slightly painful • 2: Painful • 3: Quite painful • 4: Very painful <2> Lower backache “How strong is lower backache?” • 0: No pain • 1: Slightly painful • 2: Painful • 3: Quite painful • 4: Very painful

Where a name gives a salt, the structure may show the parent alone.

On to `CCOc1ccccc1OCCN[C@H](C)Cc1ccc(OC)c(S(N)(=O)=O)c1` [tamsulosin hydrochloride, (R)(−)-5-[2-[[2-(o-ethoxyphenoxy)ethyl]amino]propyl]-2-methoxybenzenesulfonamide], for which, for the setting “12 week clinical study, 18 patients, oral 0.2 or 0.4 mg/day”, the “improvement of hypogastric/perineal pain or lower backache in patients with urinary dysfunction (overall conclusion)” value is “effective”. Moreover, the “number of patients with hypogastric/perineal pain improved to score 0 (no pain)” value (of 7 patients with score 1 (slightly painful) before administration, evaluation in Weeks 4 and 12, oral 0.2 or 0.4 mg/day once daily after breakfast) is listed as 6 patients. Under “of 7 patients with score 1 before administration, evaluation in Weeks 4 and 12, oral 0.2 or 0.4 mg/day”, the “number of patients with hypogastric/perineal pain unchanged (score 1, slightly painful)” value amounted to 1 patient. For the same compound, the “lower backache score after administration” value (the only 1 patient with lower backache (score 1, slightly painful) before administration, evaluation in Weeks 4 and 12, oral 0.2 or 0.4 mg/day) is “improved to score 0 (no pain)”.
